Measurements from ChEMBL document CHEMBL1151710, “Sesquiterpenes from the sponge Axinyssa isabela” (2008).
Calls of active or inactive are those of the source. The rule behind the calls is not given here.

What was measured:
MDA-MB-231 [1] = experiment: Cytotoxicity against human MDA-MB-231 cells at 10 ug/ml by SRB assay; type: functional, cell-based
A549 [2] = experiment: Cytotoxicity against human A549 cells at 10 ug/ml by SRB assay; type: functional, cell-based
HT-29 [3] = experiment: Cytotoxicity against human HT-29 cells at 10 ug/ml by SRB assay; type: functional, cell-based
MDA-MB-231 [4] = experiment: Cytotoxicity against human MDA-MB-231 cells by SRB assay; type: functional
A549 [5] = experiment: Cytotoxicity against human A549 cells by SRB assay; type: functional
HT-29 [6] = experiment: Cytotoxicity against human HT-29 cells by SRB assay; type: functional

What does the source list for C[C@H]1CCCC2=C[C@H](C#N)[C@H]3[C@H](C3(C)C)[C@@]21C?
Activity (MDA-MB-231 [1]): inactive; Activity (A549 [2]): inactive; Activity (HT-29 [3]): inactive

Which results are given for C=C1CCC[C@]2(C)CC[C@@H](C(=C)C)[C@H](N=C=S)[C@@H]12?
Activity (MDA-MB-231 [1]): inactive; Activity (A549 [2]): inactive; Activity (HT-29 [3]): inactive

C[C@H]1CC[C@H](O)C2=CC(=O)[C@H]3[C@H](C3(C)C)[C@@]21C was tested. Which Activity (MDA-MB-231 [1]) did it give?
The Activity was “inactive”.

And the Activity (A549 [2])?
The Activity was “inactive”.

And the Activity (HT-29 [3])?
The Activity was “inactive”.

Which results are given for C[C@H]1CC[C@@H](OO)C2=CC(=O)[C@H]3[C@H](C3(C)C)[C@@]21C?
Activity (MDA-MB-231 [1]): inactive; Activity (A549 [2]): inactive; Activity (HT-29 [3]): inactive

With CC(C)=CCCC(C)(N=C=S)[C@H]1CC=C(C)CC1 (some centres not stated) as the compound, how does the Activity (MDA-MB-231 [1]) read?
Its Activity is “inactive”.

And the Activity (A549 [2])?
The Activity was “inactive”.

What about the Activity (HT-29 [3]) of the same compound?
The Activity was “inactive”.

How did the GI50 (MDA-MB-231 [4]) turn out when C=C(C)[C@]1(OO)CC[C@@]2(C)CCC[C@@](C)(N=C=S)[C@@H]2C1 [AXINISOTHIOCYANATE N] was run?
The GI50 was 33.3 µM.

What about the GI50 (A549 [5]) of the same compound?
The GI50 was 32.6 µM.

What does the source list for C=C(C)[C@H]1CC[C@@]2(C)CCC[C@@](C)(N=C=S)[C@@H]2C1?
Activity (MDA-MB-231 [1]): inactive; Activity (A549 [2]): inactive; Activity (HT-29 [3]): inactive

What does the source list for COc1cccc2c1C(=O)c1c(O)c3c(c(O)c1C2=O)C[C@@](O)(C(=O)CO)C[C@@H]3O[C@H]1C[C@H](N)[C@H](O)[C@H](C)O1 [DOXORUBICIN]?
GI50 (MDA-MB-231 [4]): 0.1 µM; GI50 (A549 [5]): 0.1 µM; GI50 (HT-29 [6]): 0.1 µM

How did the Activity (MDA-MB-231 [1]) turn out when C[C@H]1CC[C@@H](O)C2=CC(=O)[C@H]3[C@H](C3(C)C)[C@@]21C was run?
The Activity was “inactive”.

What about the Activity (A549 [2]) of the same compound?
Its Activity is “inactive”.

And the Activity (HT-29 [3])?
The Activity was “inactive”.

With C[C@H]1CCC[C@]2(O)[C@@H](O)C(=O)[C@H]3[C@H](C3(C)C)[C@]12C as the compound, how does the Activity (MDA-MB-231 [1]) read?
The Activity was “inactive”.

What about the Activity (A549 [2]) of the same compound?
Its Activity is “inactive”.

And the Activity (HT-29 [3])?
Its Activity is “inactive”.

How did the Activity (MDA-MB-231 [1]) turn out when C=C(C)[C@]1(O)CC[C@@]2(C)CCC[C@@](C)(N=C=S)[C@@H]2C1 was run?
Its Activity is “inactive”.

And the Activity (A549 [2])?
The Activity was “inactive”.

And the Activity (HT-29 [3])?
The Activity was “inactive”.

Which GI50 (A549 [5]) does the source give for C[C@H]1CC(=O)C=C2[C@H]3O[C@H]3[C@H]3[C@H](C3(C)C)[C@@]21C [AXINYSONE E] here?
Its GI50 is 38.7 µM.

What about the GI50 (HT-29 [6]) of the same compound?
Its GI50 is 38.3 µM.

How did the Activity (MDA-MB-231 [1]) turn out when C[C@H]1CCCC2=CC(=O)[C@H]3[C@H](C3(C)C)[C@@]21C was run?
The Activity was “inactive”.

What about the Activity (A549 [2]) of the same compound?
The Activity was “inactive”.

What about the Activity (HT-29 [3]) of the same compound?
Its Activity is “inactive”.
